Assay results published in patent publication US11548893B2 (priority 2017, dated 2023).
Like-named read-outs stand apart in the source and are kept apart here.

Columns and labels:
[1] = test system: SUDV (glycoprotein, VSV pseudotype); experiment: microbe, parasite or virus in culture; format: cell-based, Sudan ebolavirus; conditions: Vesicular stomatitis virus, Vero, 24 h, read-out: EC50 Pseudotype Assays SUDV
[2] = in vitro; conditions: African green monkey, Cytotox CC50
[3] = test system: EBOV (mucin-deleted glycoprotein, VSV pseudotype); experiment: microbe, parasite or virus in culture; format: cell-based, Zaire ebolavirus; conditions: Zaire ebolavirus, Vero, 24 h, read-out: EC50 Pseudotype Assays EBOV
[4] = test system: VSV (native full-length glycoprotein); experiment: microbe, parasite or virus in culture; format: cell-based; conditions: Vesicular stomatitis virus, Vero, read-out: EC50 Pseudotype Assays VSV
[5] = test system: EBOV_FL: full-length Ebola Zaire GP (VSV pseudotype); experiment: microbe, parasite or virus in culture; format: cell-based, Zaire ebolavirus; conditions: Zaire ebolavirus, Vero, 24 h, read-out: EC50 Pseudotype Assays EBOV_FL
[6] = test system: BDBV (mucin-deleted glycoprotein, VSV pseudotype); experiment: microbe, parasite or virus in culture; format: cell-based, Bundibugyo ebolavirus; conditions: Vesicular stomatitis virus, Vero, 24 h, read-out: EC50 Pseudotype Assays BDBV
[7] = test system: MARV (full-length glycoprotein, VSV pseudotype); experiment: microbe, parasite or virus in culture; format: cell-based, Marburg marburgvirus; conditions: Vesicular stomatitis virus, Vero, 24 h, read-out: EC50 Pseudotype Assays MARV
[8] = test system: Ebola Zaire
[9] = microsomes, 1 h
[10] = microsomes, 1 h; remark: listed apart in the source
[11] = test system: Ebola Zaire; experiment: microbe, parasite or virus in culture; conditions: Zaire ebolavirus, HeLa, read-out: Ebola Zaire EC50
[12] = microsomes, 1 h; remark: listed apart in the source
[13] = test system: Sudan Gulu; experiment: organism not typed; conditions: HeLa, read-out: Sudan Gulu EC50
[14] = microsomes, 1 h; remark: listed apart in the source
[15] = test system: Sudan Gulu
[16] = test system: Ebola Zaire; experiment: microbe, parasite or virus in culture; conditions: Zaire ebolavirus, read-out: Ebola Zaire EC90
[17] = test system: Ebola Zaire; experiment: microbe, parasite or virus in culture; conditions: Zaire ebolavirus, read-out: Ebola Zaire EC50
[18] = test system: Ebola Zaire; remark: listed apart in the source
[19] = in vitro; conditions: African green monkey
[20] = test system: EBOV (Mayinga); experiment: microbe, parasite or virus in culture; format: cell-based, Ebola virus; conditions: for EC50: Zaire ebolavirus, Vero

Row | Structure (SMILES) | EC50 [1] [nM] | CC50 [2] [nM] | EC50 [3] [nM] | EC50 [5] [nM] | EC50 [6] [nM] | EC50 [7] [nM] | other results
1 | CC12CC3CC(C(=O)NC4CCNCC4)(C1)CC(c1ccccc1)(C3)C2 (racemic) [Example A1] | 380 | 16100 | 42 | 40 | 160 | 2800 | EC50 [4]: > 10000 nM
2 | CC12CC3CC(C(=O)N[C@H]4CC[C@H](CN)CC4)(C1)CC(c1ccccc1)(C3)C2 (mixture of isomers) [Example A3] | 30 | 8000 | 26 | 40 | 95 | 7000 | EC50 [4]: > 10000 nM
3 | C[C@H]1C[C@@H](NC(=O)C23CC4CC(C)(C2)CC(c2ccccc2)(C4)C3)CCN1 (mixture of isomers) [Example A4] | 730 | 11700 | 22 | 25 | 198 | 7100 | EC50 [4]: > 10000 nM
4 | CC12CC3CC(C(=O)N[C@@H]4CCNC[C@H]4F)(C1)CC(c1ccccc1)(C3)C2 (mixture of isomers) [Example A5] | 410 | 11300 | 50 | 30 | 190 | 4880 | EC50 [4]: > 10000 nM
5 | CCC12CC3CC(C(=O)N[C@H]4CCN[C@@H](C)C4)(C1)CC(c1ccccc1)(C3)C2 (mixture of isomers) [Example A21] | 415 | 3900 | 22 | 20 | 208 | 6910 | –
6 | CCC12CC3CC(C(=O)N[C@H]4CC[C@H](CN)CC4)(C1)CC(c1ccccc1)(C3)C2 (mixture of isomers) [Example A22] | 416 | 3700 | 19 | 10 | 185 | 2800 | –
7 | CCC12CC3CC(C(=O)N[C@@H]4CCNC[C@@H]4F)(C1)CC(c1ccccc1)(C3)C2 (mixture of isomers) [Example A23] | 500 | 7800 | 41 | 20 | 306 | 3510 | –
8 | CCC12CC3CC(C(=O)N[C@@H]4CCNC[C@H]4O)(C1)CC(c1ccccc1)(C3)C2 (mixture of isomers) [Example A25] | 795 | 11800 | 41 | 60 | 198 | 8460 | –
9 | CCC12CC3CC(C(=O)NC4(C)CCNCC4)(C1)CC(c1ccccc1)(C3)C2 (racemic) [Example A26] | 605 | 6700 | 130 | 200 | 333 | 2570 | –
10 | N[C@H]1CC[C@@H](NC(=O)C23CC4CC(CF)(C2)CC(c2ccccc2)(C4)C3)CC1 (mixture of isomers) [Example A28] | 1540 | 32300 | 62 | 140 | 596 | > 10000 | –
11 | CC12CC3CC(C(=O)N4CCC(N)C(C)(C)C4)(C1)CC(c1ccccc1)(C3)C2 (racemic) [Example A35] | 80 | 10200 | 10 | 20 | 71 | – | Ebola Zaire SI (CC50/EC50) [8]: 29; Liver Microsome Stability % Remaining after 60 Minutes, Mouse [9]: 42%; Liver Microsome Stability % Remaining after 60 Minutes, Human [10]: 97%; EC50 [11]: 1140 nM; Liver Microsome Stability % Remaining after 60 Minutes, Guinea Pig [12]: 45%; EC50 [13]: 140 nM; Liver Microsome Stability % Remaining after 60 Minutes, Monkey [14]: 22%; Sudan Gulu SI (CC50/EC50) [15]: 136
12 | CC12CC3CC(C(=O)N4CCC5(CC4)CNC5)(C1)CC(c1ccccc1)(C3)C2 (racemic) [Example A48] | 35 | 13700 | 14 | 140 | 35 | – | Liver Microsome Stability % Remaining after 60 Minutes, Mouse [9]: 76%; Liver Microsome Stability % Remaining after 60 Minutes, Human [10]: 46%; Liver Microsome Stability % Remaining after 60 Minutes, Guinea Pig [12]: 87%; Liver Microsome Stability % Remaining after 60 Minutes, Monkey [14]: 22%
13 | CC12CC3CC(C(=O)N[C@H]4CN5CCC4CC5)(C1)CC(c1ccccc1)(C3)C2 (mixture of isomers) [Example A58] | 383 | 7200 | 74 | 70 | 198 | 282 | EC50 [4]: > 10000 nM
14 | CC12CC3CC(CN4CCC(N)CC4)(C1)CC(c1ccccc1)(C3)C2 (centres unmarked) [Example A69] | 290 | 2200 | 321 | – | 163 | 950 | Ebola Zaire SI (CC50/EC50) [8]: 16; Liver Microsome Stability % Remaining after 60 Minutes, Mouse [9]: 100%; Liver Microsome Stability % Remaining after 60 Minutes, Human [10]: 98%; EC50 [11]: 440 nM; Liver Microsome Stability % Remaining after 60 Minutes, Guinea Pig [12]: 65%; EC50 [13]: 70 nM; Liver Microsome Stability % Remaining after 60 Minutes, Monkey [14]: 68%; Sudan Gulu SI (CC50/EC50) [15]: 58
15 | C[C@]12CC3CC(C(=O)N[C@H]4CC[C@H](CN)CC4)(C1)C[C@@](c1ccccc1)(C3)C2 [Example B3] | 230 | 6110 | 9 | 10 | 114 | 3600 | Liver Microsome Stability % Remaining after 60 Minutes, Mouse [9]: 27%; EC90 [16]: 600 nM; Liver Microsome Stability % Remaining after 60 Minutes, Human [10]: 83%; EC50 [17]: 430 nM; Ebola Zaire SI (CC50/EC90) [18]: 23; EC50 [11]: 570 nM; EC50 [13]: 120 nM; Liver Microsome Stability % Remaining after 60 Minutes, Monkey [14]: 61%; Sudan Gulu SI (CC50/EC50) [15]: 119
16 | C[C@]12CC3CC(C(=O)N[C@@H]4CCNC[C@H]4F)(C1)C[C@@](c1ccccc1)(C3)C2 [Example B5] | 240 | 11900 | 19 | 20 | 174 | > 3000 | –
17 | C[C@]12CC3CC(C(=O)N[C@H]4CCNC[C@@H]4F)(C1)C[C@@](c1ccccc1)(C3)C2 [Example B6] | 320 | 12200 | 36 | 20 | 193 | > 3000 | –
18 | CC1(C)CN(C(=O)C23CC4C[C@@](C)(C2)C[C@](c2ccccc2)(C4)C3)CC[C@@H]1N [Example B13] | 40 | 11300 | 14 | – | 71 | – | Liver Microsome Stability % Remaining after 60 Minutes, Mouse [9]: 51%; Liver Microsome Stability % Remaining after 60 Minutes, Human [10]: 85%; Liver Microsome Stability % Remaining after 60 Minutes, Guinea Pig [12]: 50%; Liver Microsome Stability % Remaining after 60 Minutes, Monkey [14]: 32%
19 | C[C@]12CC3CC(C(=O)N[C@H]4CN5CCC4CC5)(C1)C[C@@](c1ccccc1)(C3)C2 [Example B58] | 220 | 8000 | 36 | – | 230 | 1680 | CC50 [19]: 25700 nM; EC90 [16]: 4400 nM; SI50 (CC50/EC50) [20]: 64; EC50 [20]: 400 nM; EC50 [17]: 400 nM; Ebola Zaire SI (CC50/EC90) [18]: 6.5; EC50 [11]: 900 nM; EC50 [13]: 150 nM; Sudan Gulu SI (CC50/EC50) [15]: 157
20 | C[C@@]12CC3CC(C(=O)N[C@H]4CC[C@@H](N)CC4)(C1)C[C@](c1ccccc1)(C3)C2 [Example C2] | 767 | 25500 | 135 | 209 | 252 | 8720 | CC50 [19]: 21400 nM; SI50 (CC50/EC50) [20]: 8; EC50 [20]: 2670 nM
21 | C[C@@]12CC3CC(C(=O)N[C@H]4CC[C@H](CN)CC4)(C1)C[C@](c1ccccc1)(C3)C2 [Example C3] | 855 | 5200 | 73 | 30 | 190 | 3170 | –
22 | C[C@H]1C[C@@H](NC(=O)C23CC4C[C@](C)(C2)C[C@@](c2ccccc2)(C4)C3)CCN1 [Example C4] | 1020 | 14000 | 78 | 30 | 178 | > 3000 | –
23 | C[C@@]12CC3CC(C(=O)N4CCC(N)CC4)(C1)C[C@](c1ccccc1)(C3)C2 [Example C7] | 335 | 13000 | 124 | 170 | 198 | 8200 | –
